Values of other authors in US9913840B2, “Formulations for aripiprazole delivery transdermally” (Corium International, Inc., priority 2015, dated 2018).

Settings: at room temperature

For `O=C1CCc2ccc(OCCCCN3CCN(c4cccc(Cl)c4Cl)CC3)cc2N1` [Aripiprazole], the aqueous solubility is listed as “less than 1 μg/mL”.
